Laboratory results published in US20240252508A1, “Novel glucose uptake inhibitors for use in the treatment of cancer” (NOVELYEAST BV, priority 2021, published 2024).

Key:
tps1Δ cells = assay: Growth rescue of tps1Δ strain on glucose (growth curves, 2% galactose medium); format: cell-based, S. cerevisiae; details: 100 μM compound, 2.5 mM glucose
Outline: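 tps1Δ yeast pregrown in Complete Synthetic medium with 2% galactose, washed, resuspended to OD 0.1; compounds added 10 min before glucose. Growth followed as OD595 every 30 min at 30 °C in at least three technical replicates.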

[1] = tested on: A549 lung adenocarcinoma cells; assay: A549 cell proliferation / growth inhibition; format: cell-based, human; details: for Selected from primary screen for growth inhibition of A549 cells at 50 μM: 50 μM compound, 1 mM glucose; for Selected for having an IC50 ratio (10 mM glucose: 1 mM glucose) of A549 growth higher than WBC-A: IC50 on 10 mM vs 1 mM glucose, compared with WBC-A
Outline: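 A549 growth screened in RPMI with 1 mM glucose, compounds at 50 μM; cell number from counts of Hoechst-stained nuclei after 3 days. Growth curves also followed by IncuCyte phase-contrast confluency over 3–5 days (1000–1500 cells/well), DMSO ≤0.1%, ≥4 technical repeats.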

Cc1nc(SCCO)c2c(-c3cccs3)csc2n1 [47A]
Rescue of the tps1Δ strain on 2.5 mM glucose at 100 μM (tps1Δ cells): Yes
Selected from primary screen for growth inhibition of A549 cells at 50 μM [1]: Yes
Selected for having an IC50 ratio (10 mM glucose: 1 mM glucose) of A549 growth higher than WBC-A [1]: Lower IC50 ratio

CCN(CC)CCSc1ncnc2scc(-c3ccccc3)c12 [36C]
Rescue of the tps1Δ strain on 2.5 mM glucose at 100 μM (tps1Δ cells): No
Selected from primary screen for growth inhibition of A549 cells at 50 μM [1]: Yes
Selected for having an IC50 ratio (10 mM glucose: 1 mM glucose) of A549 growth higher than WBC-A [1]: Lower IC50 ratio

Cc1nc(SCC(=O)NCC(F)(F)F)c2c(-c3cccs3)csc2n1 [31B]
Rescue of the tps1Δ strain on 2.5 mM glucose at 100 μM (tps1Δ cells): No
Selected from primary screen for growth inhibition of A549 cells at 50 μM [1]: No

Cc1cc(C)n2nc(Sc3nc(C)nc4scc(-c5cccs5)c34)nc2n1 [3A]
Rescue of the tps1Δ strain on 2.5 mM glucose at 100 μM (tps1Δ cells): No
Selected from primary screen for growth inhibition of A549 cells at 50 μM [1]: No

CCCNC(=O)CN1CCC(Nc2nc(C)nc3scc(-c4cccs4)c23)CC1 [30B]
Rescue of the tps1Δ strain on 2.5 mM glucose at 100 μM (tps1Δ cells): No
Selected from primary screen for growth inhibition of A549 cells at 50 μM [1]: No

CC(C)Sc1nc(SCCN2CCOCC2)c2c3c(sc2n1)COC(C)(C)C3 [80C]
Rescue of the tps1Δ strain on 2.5 mM glucose at 100 μM (tps1Δ cells): No
Selected from primary screen for growth inhibition of A549 cells at 50 μM [1]: No

Cc1nc(SCCN2CCOCC2)c2c(-c3cccs3)csc2n1 [44A]
Rescue of the tps1Δ strain on 2.5 mM glucose at 100 μM (tps1Δ cells): Yes
Selected from primary screen for growth inhibition of A549 cells at 50 μM [1]: Yes
Selected for having an IC50 ratio (10 mM glucose: 1 mM glucose) of A549 growth higher than WBC-A [1]: Lower IC50 ratio

COc1cccc(NC(=O)CSc2ncnc3sc(C)c(-c4ccccc4)c23)c1 [12B]
Rescue of the tps1Δ strain on 2.5 mM glucose at 100 μM (tps1Δ cells): No
Selected from primary screen for growth inhibition of A549 cells at 50 μM [1]: Yes
Selected for having an IC50 ratio (10 mM glucose: 1 mM glucose) of A549 growth higher than WBC-A [1]: Lower IC50 ratio

Cc1ccc(-c2csc3ncnc(SCC(=O)NCc4ccco4)c23)cc1 [8B]
Rescue of the tps1Δ strain on 2.5 mM glucose at 100 μM (tps1Δ cells): No
Selected from primary screen for growth inhibition of A549 cells at 50 μM [1]: Yes
Selected for having an IC50 ratio (10 mM glucose: 1 mM glucose) of A549 growth higher than WBC-A [1]: Lower IC50 ratio

Cc1nc(SCCOc2ccc(F)cc2)c2c(-c3cccs3)csc2n1 [32C]
Rescue of the tps1Δ strain on 2.5 mM glucose at 100 μM (tps1Δ cells): No
Selected from primary screen for growth inhibition of A549 cells at 50 μM [1]: No

COc1ccc(-c2csc3nc(C)nc(Sc4nnc(-c5ccoc5C)n4C)c23)cc1OC [20A]
Rescue of the tps1Δ strain on 2.5 mM glucose at 100 μM (tps1Δ cells): No
Selected from primary screen for growth inhibition of A549 cells at 50 μM [1]: Yes
Selected for having an IC50 ratio (10 mM glucose: 1 mM glucose) of A549 growth higher than WBC-A [1]: Lower IC50 ratio

CC(=O)N(c1nnc(Sc2nc(C)nc3scc(-c4cccs4)c23)s1)C1CC1 [39C]
Rescue of the tps1Δ strain on 2.5 mM glucose at 100 μM (tps1Δ cells): No
Selected from primary screen for growth inhibition of A549 cells at 50 μM [1]: No

CCCn1c(Sc2nc(C)nc3scc(-c4cccs4)c23)nnc1-c1ccncc1 [34C]
Rescue of the tps1Δ strain on 2.5 mM glucose at 100 μM (tps1Δ cells): No
Selected from primary screen for growth inhibition of A549 cells at 50 μM [1]: Yes
Selected for having an IC50 ratio (10 mM glucose: 1 mM glucose) of A549 growth higher than WBC-A [1]: Lower IC50 ratio

c1ccc(Cn2c(CN3CCCC3)nnc2Sc2ncnc3scc(-c4ccccc4)c23)cc1 [27A]
Rescue of the tps1Δ strain on 2.5 mM glucose at 100 μM (tps1Δ cells): No
Selected from primary screen for growth inhibition of A549 cells at 50 μM [1]: Yes
Selected for having an IC50 ratio (10 mM glucose: 1 mM glucose) of A549 growth higher than WBC-A [1]: Lower IC50 ratio

Cc1nc(SCC(=O)N2CCOCC2)c2c(C)c(C)sc2n1 [47C]
Rescue of the tps1Δ strain on 2.5 mM glucose at 100 μM (tps1Δ cells): No
Selected from primary screen for growth inhibition of A549 cells at 50 μM [1]: No

CCn1c(CN)nnc1Sc1nc(-c2ccccc2)nc2scc(-c3ccccc3)c12 [37A]
Rescue of the tps1Δ strain on 2.5 mM glucose at 100 μM (tps1Δ cells): No
Selected from primary screen for growth inhibition of A549 cells at 50 μM [1]: No

OCCSc1ncnc2sc(-c3ccccc3)cc12 [30C]
Rescue of the tps1Δ strain on 2.5 mM glucose at 100 μM (tps1Δ cells): No
Selected from primary screen for growth inhibition of A549 cells at 50 μM [1]: No

Cc1cc(NC(=O)CSc2nnc(C)c3cnn(-c4ccccc4)c23)no1 [72C]
Rescue of the tps1Δ strain on 2.5 mM glucose at 100 μM (tps1Δ cells): No
Selected from primary screen for growth inhibition of A549 cells at 50 μM [1]: No

CC(=O)CSc1nc(C)nc2scc(-c3cccs3)c12 [26B]
Rescue of the tps1Δ strain on 2.5 mM glucose at 100 μM (tps1Δ cells): No
Selected from primary screen for growth inhibition of A549 cells at 50 μM [1]: No

Cc1cc(C)nc(Sc2nc(CN3CCOCC3)nc3scc(-c4cccs4)c23)n1 [64C]
Rescue of the tps1Δ strain on 2.5 mM glucose at 100 μM (tps1Δ cells): No
Selected from primary screen for growth inhibition of A549 cells at 50 μM [1]: Yes
Selected for having an IC50 ratio (10 mM glucose: 1 mM glucose) of A549 growth higher than WBC-A [1]: Lower IC50 ratio

CSc1nc(SCCO)c2c3c(sc2n1)COC(C)(C)C3 [81C]
Rescue of the tps1Δ strain on 2.5 mM glucose at 100 μM (tps1Δ cells): No
Selected from primary screen for growth inhibition of A549 cells at 50 μM [1]: Yes
Selected for having an IC50 ratio (10 mM glucose: 1 mM glucose) of A549 growth higher than WBC-A [1]: Lower IC50 ratio

c1ccc2c(c1)sc1nnc(Sc3ncnc4sc5c(c34)CCCC5)n12 [62A]
Rescue of the tps1Δ strain on 2.5 mM glucose at 100 μM (tps1Δ cells): No
Selected from primary screen for growth inhibition of A549 cells at 50 μM [1]: No

Cc1sc2ncnc(Sc3nnc4n3CCCCC4)c2c1C [64A]
Rescue of the tps1Δ strain on 2.5 mM glucose at 100 μM (tps1Δ cells): No
Selected from primary screen for growth inhibition of A549 cells at 50 μM [1]: No

Cn1nnnc1Sc1ncnc2scc(-c3ccc(Cl)cc3)c12 [48A]
Rescue of the tps1Δ strain on 2.5 mM glucose at 100 μM (tps1Δ cells): No
Selected from primary screen for growth inhibition of A549 cells at 50 μM [1]: Yes
Selected for having an IC50 ratio (10 mM glucose: 1 mM glucose) of A549 growth higher than WBC-A [1]: Lower IC50 ratio

Cc1nc(Sc2nnc(-c3ccncc3)n2C)c2c(-c3cccs3)csc2n1 [26A]
Rescue of the tps1Δ strain on 2.5 mM glucose at 100 μM (tps1Δ cells): Yes
Selected from primary screen for growth inhibition of A549 cells at 50 μM [1]: Yes
Selected for having an IC50 ratio (10 mM glucose: 1 mM glucose) of A549 growth higher than WBC-A [1]: Lower IC50 ratio

Cc1nc2scc(-c3cccs3)c2c(=O)[nH]1 [48C]
Rescue of the tps1Δ strain on 2.5 mM glucose at 100 μM (tps1Δ cells): No
Selected from primary screen for growth inhibition of A549 cells at 50 μM [1]: No

Cc1nc(SCC(=O)C(C)(C)C)c2c(-c3cccs3)csc2n1 [18A]
Rescue of the tps1Δ strain on 2.5 mM glucose at 100 μM (tps1Δ cells): No
Selected from primary screen for growth inhibition of A549 cells at 50 μM [1]: Yes
Selected for having an IC50 ratio (10 mM glucose: 1 mM glucose) of A549 growth higher than WBC-A [1]: Lower IC50 ratio

COc1ccc(-c2csc3nc(C)nc(Sc4nnc(C)n4C)c23)cc1OC [5A]
Rescue of the tps1Δ strain on 2.5 mM glucose at 100 μM (tps1Δ cells): No
Selected from primary screen for growth inhibition of A549 cells at 50 μM [1]: No
